Measured values: PubChem BioAssay AID330 (DTP/NCI, 2004)
Several values for one entry are separate records, joined by “and”; a condition that tells them apart may be missing. Identical values can stand only once. Toxic doses and inconclusive results are not listed.

System: P388 leukemia ip, CD2F1 mice, survival T/C
Assay: NCI In Vivo Anticancer Drug Screen. Data for tumor model P388 Leukemia (intraperitoneal) in CD2F1 (CDF1) mice
Details: endpoint: median survival time, higher = longer survival
Method in brief: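 Mice carrying the transplanted tumor received test compound or vehicle. Survival was recorded in each group, and the value is the treated-group measurement divided by that of the vehicle-treated control group.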

[1] = dose: 50.0 mg/kg/injection, schedule: Q01DX009 (ip), vehicle: saline
[2] = dose: 100.0 mg/kg/injection, schedule: Q01DX009 (ip), vehicle: saline
[3] = dose: 50.0 mg/kg/injection, schedule: Q01DX005 (ip), vehicle: saline with Tween-80
[4] = dose: 100.0 mg/kg/injection, schedule: Q01DX005 (ip), vehicle: saline with Tween-80
[5] = dose: 50.0 mg/kg/injection, schedule: Q01DX009 (ip), vehicle: saline with Tween-80
[6] = dose: 100.0 mg/kg/injection, schedule: Q01DX009 (ip), vehicle: saline with Tween-80
[7] = dose: 200.0 mg/kg/injection, schedule: Q01DX009 (ip), vehicle: saline with Tween-80
[8] = dose: 200.0 mg/kg/injection, schedule: Q01DX005 (ip), vehicle: saline with Tween-80
[9] = dose: 50.0 mg/kg/injection, schedule: Q01DX005 (ip), vehicle: Klucel (hydroxypropylcellulose) (HPC)
[10] = dose: 100.0 mg/kg/injection, schedule: Q01DX005 (ip), vehicle: Klucel (hydroxypropylcellulose) (HPC)
[11] = dose: 60.0 mg/kg/injection, schedule: Q01DX005 (ip), vehicle: Klucel (hydroxypropylcellulose) (HPC)
[12] = dose: 120.0 mg/kg/injection, schedule: Q01DX005 (ip), vehicle: Klucel (hydroxypropylcellulose) (HPC)

COC(=O)NN(C(=O)OC)C12CCCC1N(C(=O)OC)N(C(=O)OC)c1c2ccc2cc(OC)ccc12 (stereo unspecified)
T/C (dose: 100.0 mg/kg/injection, schedule: Q04DX002 (ip), vehicle: Klucel (hydroxypropylcellulose) (HPC)): 99 % of control | T/C (dose: 200.0 mg/kg/injection, schedule: Q04DX002 (ip), vehicle: Klucel (hydroxypropylcellulose) (HPC)): 92 % of control | T/C (dose: 400.0 mg/kg/injection, schedule: Q04DX002 (ip), vehicle: Klucel (hydroxypropylcellulose) (HPC)): 90 % of control

CCC[CH2][Sn]([CH2]CCC)([CH2]CCC)[CH2]CCCNCCCN(C)C
T/C [1]: 97 % of control | T/C [2]: 100 % of control

C/C=C1\C[N+]2(C)CCC34c5ccccc5NC32C(O)CC1C4(CO)C(=O)OC (stereo unspecified)
T/C (dose: 4.0 mg/kg/injection, schedule: Q01DX009 (ip), vehicle: saline with Tween-80): 110 % of control | T/C (dose: 4.0 mg/kg/injection, schedule: Q01DX009 (ip), vehicle: saline): 113 % of control | T/C (dose: 8.0 mg/kg/injection, schedule: Q01DX009 (ip), vehicle: saline with Tween-80): 110 % of control | T/C (dose: 8.0 mg/kg/injection, schedule: Q01DX009 (ip), vehicle: saline): 97 % of control | T/C (dose: 16.0 mg/kg/injection, schedule: Q01DX009 (ip), vehicle: saline with Tween-80): 103 % of control | T/C (dose: 16.0 mg/kg/injection, schedule: Q01DX009 (ip), vehicle: saline): 105 % of control | T/C (dose: 32.0 mg/kg/injection, schedule: Q01DX009 (ip), vehicle: saline with Tween-80): 110 % of control | T/C (dose: 32.0 mg/kg/injection, schedule: Q01DX009 (ip), vehicle: saline): 98 % of control

CSc1nc2nc[nH]c(=O)c2[nH]1
T/C (dose: 25.0 mg/kg/injection, schedule: Q01DX005 (ip), vehicle: saline with Tween-80): 95 % of control | T/C [3]: 99 % of control | T/C [4]: 94 % of control

COc1cc[c]([Sb]2([c]3ccc(OC)cc3)([c]3ccc(OC)cc3)[NH]c3cc(C(c4ccccc4)(c4ccccc4)c4ccccc4)cc(C(C)(C)C)c3[O]2)cc1
T/C [5]: 100 % of control | T/C [6]: 99 % of control | T/C [7]: 100 % of control

CC(=O)Oc1ccc(/C=N\N(C)C)cc1
T/C [1]: 102 % of control | T/C [2]: 95 % of control

CCN(CC)C(=S)N/N=C(\C)c1ccccn1
T/C (dose: 6.25 mg/kg/injection, schedule: Q01DX009 (ip), vehicle: saline with Tween-80): 106 % of control | T/C (dose: 12.5 mg/kg/injection, schedule: Q01DX009 (ip), vehicle: saline with Tween-80): 89 % of control

CC(NNC(=S)NCc1ccccc1)c1cc2ccccc2cn1 (stereo unspecified)
T/C [3]: 106 % of control and 113 % of control | T/C [4]: 119 % of control | T/C [8]: 160 % of control

COc1ccc2c(c1OC)C(=O)O[C@@H]2[C@H]1c2c(cc3c(c2OC)OCO3)CCN1C
T/C (dose: 62.5 mg/kg/injection, schedule: Q01DX010 (ip), vehicle: saline): 100 % of control | T/C (dose: 125.0 mg/kg/injection, schedule: Q01DX010 (ip), vehicle: saline): 95 % of control

CC(C)N1CCN(c2ccc(OCC3COC(Cn4cncn4)(c4ccc(Cl)cc4Cl)O3)cc2)CC1 (stereo unspecified)
T/C [9]: 100 % of control | T/C [10]: 101 % of control

Nc1cc(N)c(Nc2ccccc2)cc1Nc1ccccc1
T/C (dose: 100.0 mg/kg/injection, schedule: Q01DX001 (ip), vehicle: Klucel (hydroxypropylcellulose) (HPC)): 99 % of control | T/C (dose: 200.0 mg/kg/injection, schedule: Q01DX001 (ip), vehicle: Klucel (hydroxypropylcellulose) (HPC)): 101 % of control | T/C (dose: 400.0 mg/kg/injection, schedule: Q01DX001 (ip), vehicle: Klucel (hydroxypropylcellulose) (HPC)): 97 % of control

CN(C)c1c([N+](=O)[O-])cc2[nH]cnc2c1[N+](=O)[O-]
T/C (dose: 3.12 mg/kg/injection, schedule: Q04DX003 (ip), vehicle: saline with Tween-80): 103 % of control | T/C (dose: 6.25 mg/kg/injection, schedule: Q04DX003 (ip), vehicle: saline with Tween-80): 103 % of control | T/C (dose: 12.5 mg/kg/injection, schedule: Q04DX003 (ip), vehicle: saline with Tween-80): 105 % of control

C/C(=N\N=c1\sc2ccccc2n1CC(=O)O)c1ccccc1
T/C (dose: 100.0 mg/kg/injection, schedule: Q01DX001 (ip), vehicle: saline with Tween-80): 97 % of control | T/C (dose: 200.0 mg/kg/injection, schedule: Q01DX001 (ip), vehicle: saline with Tween-80): 89 % of control

O=[N+]([O-])c1oc2ccc3ccccc3c2c1CCO
T/C (dose: 60.0 mg/kg/injection, schedule: Q01DX005 (ip), vehicle: saline with Tween-80): 97 % of control | T/C (dose: 120.0 mg/kg/injection, schedule: Q01DX005 (ip), vehicle: saline with Tween-80): 110 % of control | T/C (dose: 240.0 mg/kg/injection, schedule: Q01DX005 (ip), vehicle: saline with Tween-80): 117 % of control

COC(=O)c1ccc(C(=O)OC)c2nc3ccccc3nc12
T/C [11]: 97 % of control | T/C [12]: 100 % of control

COc1cc(CC(N)C(C)=O)cc(OC)c1OC (stereo unspecified)
T/C [1]: 99 % of control | T/C [2]: 100 % of control | T/C (dose: 200.0 mg/kg/injection, schedule: Q01DX009 (ip), vehicle: saline): 100 % of control

COc1ccc2c(c1)OC(C)(C)C(c1ccccc1)C2c1ccc(O)c([N+](=O)[O-])c1 (stereo unspecified)
T/C [9]: 109 % of control | T/C [10]: 101 % of control

C/C(=N\NC(=S)Nc1ccc(C(=O)O)cc1C)c1ccc2ccccc2n1
T/C [3]: 109 % of control | T/C [4]: 107 % of control | T/C [8]: 119 % of control

Fc1cccc(CSC(=S)Nc2ccccc2)c1
T/C (dose: 100.0 mg/kg/injection, schedule: Q01DX001 (ip), vehicle: saline): 106 % of control | T/C (dose: 200.0 mg/kg/injection, schedule: Q01DX001 (ip), vehicle: saline): 102 % of control | T/C (dose: 400.0 mg/kg/injection, schedule: Q01DX001 (ip), vehicle: saline): 102 % of control

CN(/C(=N/C(=S)NCc1ccccc1)SCc1ccccc1)c1ccccc1
T/C [3]: 94 % of control | T/C [4]: 86 % of control

COc1cccc2c1C(=N)c1c(O)c3c(c(O)c1C2=O)CC(O)(C(=O)CO)CC3OC1CC(N2CCOCC2)C(O)C(C)O1 (stereo unspecified)
T/C (dose: 0.13 mg/kg/injection, schedule: Q04DX003 (ip), vehicle: water): 101 % of control and 104 % of control and 98 % of control | T/C (dose: 0.25 mg/kg/injection, schedule: Q04DX003 (ip), vehicle: water): 101 % of control and 108 % of control and 116 % of control | T/C (dose: 0.5 mg/kg/injection, schedule: Q04DX003 (ip), vehicle: water): 104 % of control and 107 % of control | T/C (dose: 0.78 mg/kg/injection, schedule: Q04DX003 (ip), vehicle: distilled water + Tween-80): 105 % of control | T/C (dose: 1.0 mg/kg/injection, schedule: Q04DX003 (ip), vehicle: water): 99 % of control and 104 % of control and 107 % of control | T/C (dose: 1.56 mg/kg/injection, schedule: Q04DX003 (ip), vehicle: distilled water + Tween-80): 101 % of control | T/C (dose: 3.12 mg/kg/injection, schedule: Q04DX003 (ip), vehicle: distilled water + Tween-80): 99 % of control

N#Cc1cc2ccncc2c2ccccc12
T/C (dose: 25.0 mg/kg/injection, schedule: Q01DX009 (ip), vehicle: saline with Tween-80): 90 % of control | T/C [5]: 93 % of control and 95 % of control | T/C [6]: 98 % of control | T/C [7]: 106 % of control and 89 % of control | T/C (dose: 400.0 mg/kg/injection, schedule: Q01DX009 (ip), vehicle: saline with Tween-80): 114 % of control

COc1ccc2[s+]c(-c3ccccc3)ccc2c1
T/C [11]: 100 % of control | T/C [12]: 108 % of control | T/C (dose: 240.0 mg/kg/injection, schedule: Q01DX005 (ip), vehicle: Klucel (hydroxypropylcellulose) (HPC)): 111 % of control

CC1(C)OCC(C2OC(C)(C)OC2C(O)c2ccco2)O1 (stereo unspecified)
T/C (dose: 12.5 mg/kg/injection, schedule: Q01DX009 (ip), vehicle: distilled water + Tween-80): 106 % of control and 100 % of control | T/C (dose: 25.0 mg/kg/injection, schedule: Q01DX009 (ip), vehicle: distilled water + Tween-80): 115 % of control and 117 % of control | T/C (dose: 50.0 mg/kg/injection, schedule: Q01DX009 (ip), vehicle: distilled water + Tween-80): 105 % of control and 118 % of control | T/C (dose: 100.0 mg/kg/injection, schedule: Q01DX009 (ip), vehicle: distilled water + Tween-80): 118 % of control and 115 % of control | T/C (dose: 200.0 mg/kg/injection, schedule: Q01DX009 (ip), vehicle: distilled water + Tween-80): 115 % of control
